Experimental data as given in ChEMBL document CHEMBL3217499, “Membrane disrupting antimicrobial peptide dendrimers with multiple amino termini” (Medchemcomm, 2012).
Values after ≈ are worked out from the molar mass of the structure shown. Active and inactive are the calls of the source. The calls are words filed in the database; no cut-off is given here. Where a SMILES comes first, the peptide text is derived from it. Bridges are numbered along the chain shown (N, C = ends). Roman numbers before positions name the chains, in order. Side-chain parts run from the residue outwards. [ ]: non-standard residue; d: D form. The star is where a group is joined. LeuLys(Leu) = CC(C)C[C@H](N)C(=O)NCCCC[C@H](NC(=O)[C@@H](N)CC(C)C)C(=O)*; X2 = CC[C@H](C)[C@H](N)C(=O)NCCCC[C@H](NC(=O)[C@@H](N)[C@@H](C)CC)C(=O)*; X1 = CC(C)C[C@H](N)C(=O)NC[C@H](NC(=O)[C@@H](N)CC(C)C)C(=O)*; Dap = NC[C@H](N)C(=O)O

Experiments:
[1] = test system: Bacillus subtilis; experiment: Antibacterial activity against Bacillus subtilis BR151 after 18 to 24 hrs by broth microdilution assay; format: functional
[2] = test system: Escherichia coli; experiment: Antibacterial activity against Escherichia coli DH5[alpha] after 18 to 24 hrs by broth microdilution assay; format: functional
[3] = test system: Pseudomonas aeruginosa; experiment: Antibacterial activity against Pseudomonas aeruginosa PAO1 after 18 to 24 hrs by broth microdilution assay; format: functional
[4] = Hemolytic activity in human RBC after 4 hrs; format: ADME, cell-based; conditions: erythrocyte
[5] = test system: Staphylococcus aureus; experiment: Antibacterial activity against Staphylococcus aureus ATCC 25923 by broth microdilution assay; format: functional
[6] = test system: Staphylococcus aureus; experiment: Antibacterial activity against Staphylococcus aureus 887 by broth microdilution assay; format: functional
[7] = test system: Staphylococcus epidermidis; experiment: Antibacterial activity against Staphylococcus epidermidis ATCC 14990 by broth microdilution assay; format: functional
[8] = test system: Staphylococcus epidermidis; experiment: Antibacterial activity against Staphylococcus epidermidis J147 by broth microdilution assay; format: functional
[9] = test system: Enterococcus faecium; experiment: Antibacterial activity against Enterococcus faecium ATCC 19434 by broth microdilution assay; format: functional
[10] = test system: Enterococcus faecium; experiment: Antibacterial activity against Enterococcus faecium Van BE38-10 by broth microdilution assay; format: functional
[11] = test system: Escherichia coli; experiment: Antibacterial activity against Escherichia coli HB101 (PAT 266) by broth microdilution assay; format: functional
[12] = test system: Escherichia coli; experiment: Antibacterial activity against Escherichia coli DC2 by broth microdilution assay; format: functional
[13] = test system: Staphylococcus aureus; experiment: Antibacterial activity against methicillin-resistant Staphylococcus aureus 42080 by broth microdilution assay; format: functional
[14] = test system: Staphylococcus aureus; experiment: Antibacterial activity against Staphylococcus aureus ATCC 29213 by broth microdilution assay; format: functional
[15] = test system: Enterococcus faecalis; experiment: Antibacterial activity against Enterococcus faecalis ATCC 29212 by broth microdilution assay; format: functional
[16] = test system: Enterococcus faecalis; experiment: Antibacterial activity against Enterococcus faecalis Van BE80-8 by broth microdilution assay; format: functional
[17] = test system: Escherichia coli; experiment: Antibacterial activity against Escherichia coli ATCC 25922 by broth microdilution assay; format: functional
[18] = test system: Pseudomonas aeruginosa; experiment: Antibacterial activity against Pseudomonas aeruginosa ATCC 27853 by broth microdilution assay; format: functional
[19] = test system: Pseudomonas aeruginosa; experiment: Antibacterial activity against Pseudomonas aeruginosa PAO1 HS by broth microdilution assay; format: functional
[20] = test system: Pseudomonas aeruginosa; experiment: Antibacterial activity against Pseudomonas aeruginosa 8S/H by broth microdilution assay; format: functional
[21] = test system: Pseudomonas aeruginosa; experiment: Antibacterial activity against Pseudomonas aeruginosa K799/WT by broth microdilution assay; format: functional
[22] = test system: Pseudomonas aeruginosa; experiment: Antibacterial activity against Pseudomonas aeruginosa K799/61 by broth microdilution assay; format: functional
[23] = test system: Lipid bilayer; experiment: Induction of membrane disruption in synthetic unilamellar vesicles assembled from Escherichia coli lipids at 25 ug/ml after 16 hrs by negative-stain transmission electron microscopic analysis; format: functional

Structure (SMILES): CC[C@H](C)[C@H](N)C(=O)NCCCC[C@H](NC(=O)[C@@H](N)[C@@H](C)CC)C(=O)N[C@H](C(=O)NCCCC[C@H](NC(=O)[C@@H](NC(=O)[C@H](CCCCNC(=O)[C@@H](N)[C@@H](C)CC)NC(=O)[C@@H](N)[C@@H](C)CC)[C@@H](C)CC)C(=O)N[C@@H](Cc1ccccc1)C(=O)NCCCC[C@H](NC(=O)[C@H](Cc1ccccc1)NC(=O)[C@H](CCCCNC(=O)[C@@H](NC(=O)[C@H](CCCCNC(=O)[C@@H](N)[C@@H](C)CC)NC(=O)[C@@H](N)[C@@H](C)CC)[C@@H](C)CC)NC(=O)[C@@H](NC(=O)[C@H](CCCCNC(=O)[C@@H](N)[C@@H](C)CC)NC(=O)[C@@H](N)[C@@H](C)CC)[C@@H](C)CC)C(=O)N[C@@H](CCCCN)C(N)=O)[C@@H](C)CC (I: H-IK(Ile)IK([Ile-X2])FKK-NH2 / II: H-IK(Ile)IK([Ile-X2])F; amide I:6-II:C)
- MIC [1]: 4.4 µg/mL (≈ 1.63 µM)
- MIC [2]: 79 µg/mL (≈ 29.3 µM)
- MIC [3]: > 100 µg/mL
- MHC [4]: 20 µg/mL
- MIC [5]: > 32 µg/mL
- MIC [6]: 16 µg/mL (≈ 5.94 µM)
- MIC [7]: 32 µg/mL (≈ 11.9 µM)
- MIC [8]: > 32 µg/mL
- MIC [9]: 24 µg/mL (≈ 8.91 µM)
- MIC [10]: 8 µg/mL (≈ 2.97 µM)
- MIC [11]: > 32 µg/mL
- MIC [12]: > 32 µg/mL
- MIC [13]: > 32 µg/mL
- MIC [14]: > 32 µg/mL
- MIC [15]: > 32 µg/mL
- MIC [16]: > 32 µg/mL
- MIC [17]: > 32 µg/mL
- MIC [18]: > 32 µg/mL
- MIC [19]: > 32 µg/mL
- MIC [20]: > 32 µg/mL
- MIC [21]: > 32 µg/mL
- MIC [22]: > 32 µg/mL

Structure (SMILES): CC(C)C[C@H](NC(=O)[C@H](CCCCNC(=O)[C@@H](N)CC(C)C)NC(=O)[C@@H](N)CC(C)C)C(=O)NCCCC[C@H](NC(=O)[C@H](CC(C)C)NC(=O)[C@H](CCCCNC(=O)[C@@H](N)CC(C)C)NC(=O)[C@@H](N)CC(C)C)C(=O)N[C@@H](Cc1ccccc1)C(=O)NCCCC[C@H](NC(=O)[C@H](Cc1ccccc1)NC(=O)[C@H](CCCCNC(=O)[C@H](CC(C)C)NC(=O)[C@H](CCCCNC(=O)[C@@H](N)CC(C)C)NC(=O)[C@@H](N)CC(C)C)NC(=O)[C@H](CC(C)C)NC(=O)[C@H](CCCCNC(=O)[C@@H](N)CC(C)C)NC(=O)[C@@H](N)CC(C)C)C(=O)N[C@@H](CCCCN)C(N)=O
- MIC [1]: 2 µg/mL (≈ 0.742 µM)
- MIC [2]: 21 µg/mL (≈ 7.79 µM)
- MIC [3]: > 72 µg/mL
- MHC [4]: 310 µg/mL
- MIC [5]: 24 µg/mL (≈ 8.91 µM)
- MIC [6]: 12 µg/mL (≈ 4.45 µM)
- MIC [7]: 32 µg/mL (≈ 11.9 µM)
- MIC [8]: 24 µg/mL (≈ 8.91 µM)
- MIC [9]: ≥ 32 µg/mL
- MIC [10]: 32 µg/mL (≈ 11.9 µM)
- MIC [11]: 32 µg/mL (≈ 11.9 µM)
- MIC [12]: > 32 µg/mL
- MIC [13]: > 32 µg/mL
- MIC [14]: > 32 µg/mL
- MIC [15]: > 32 µg/mL
- MIC [16]: > 32 µg/mL
- MIC [17]: > 32 µg/mL
- MIC [18]: > 32 µg/mL
- MIC [19]: > 32 µg/mL
- MIC [20]: > 32 µg/mL
- MIC [21]: > 32 µg/mL
- MIC [22]: > 32 µg/mL
- Activity [23]: Active

Structure (SMILES): CC(C)C[C@H](NC(=O)[C@H](CNC(=O)[C@@H](N)CC(C)C)NC(=O)[C@@H](N)CC(C)C)C(=O)NC[C@H](NC(=O)[C@H](CC(C)C)NC(=O)[C@H](CNC(=O)[C@@H](N)CC(C)C)NC(=O)[C@@H](N)CC(C)C)C(=O)N[C@@H](Cc1ccccc1)C(=O)NC[C@H](NC(=O)[C@H](Cc1ccccc1)NC(=O)[C@H](CNC(=O)[C@H](CC(C)C)NC(=O)[C@H](CNC(=O)[C@@H](N)CC(C)C)NC(=O)[C@@H](N)CC(C)C)NC(=O)[C@H](CC(C)C)NC(=O)[C@H](CNC(=O)[C@@H](N)CC(C)C)NC(=O)[C@@H](N)CC(C)C)C(=O)N[C@@H](CCCCN)C(N)=O (I: H-L[Dap](Leu)L[Dap]([Leu-X1])F[Dap]K-NH2 / II: H-L[Dap](Leu)L[Dap]([Leu-X1])F; amide I:6-II:C)
- MIC [1]: 2.9 µg/mL (≈ 1.21 µM)
- MIC [2]: 3.9 µg/mL (≈ 1.62 µM)
- MIC [3]: 18 µg/mL (≈ 7.5 µM)
- MHC [4]: > 2000 µg/mL
- MIC [5]: ≥ 32 µg/mL
- MIC [6]: 32 µg/mL (≈ 13.3 µM)
- MIC [7]: 24 µg/mL (≈ 10 µM)
- MIC [8]: 24 µg/mL (≈ 10 µM)
- MIC [9]: > 32 µg/mL
- MIC [10]: > 32 µg/mL
- MIC [11]: 32 µg/mL (≈ 13.3 µM)
- MIC [12]: 32 µg/mL (≈ 13.3 µM)
- MIC [13]: > 32 µg/mL
- MIC [14]: > 32 µg/mL
- MIC [15]: > 32 µg/mL
- MIC [16]: > 32 µg/mL
- MIC [17]: > 32 µg/mL
- MIC [18]: > 32 µg/mL
- MIC [19]: > 32 µg/mL
- MIC [20]: > 32 µg/mL
- MIC [21]: > 32 µg/mL
- MIC [22]: > 32 µg/mL

Structure (SMILES): CC(C)C[C@H](N)C(=O)NCCCC[C@H](NC(=O)[C@@H](N)CC(C)C)C(=O)N[C@@H](CCC(N)=O)C(=O)NCCCC[C@H](NC(=O)[C@H](CCC(N)=O)NC(=O)[C@H](CCCCNC(=O)[C@@H](N)CC(C)C)NC(=O)[C@@H](N)CC(C)C)C(=O)N[C@@H](Cc1ccccc1)C(=O)NCCCC[C@H](NC(=O)[C@H](Cc1ccccc1)NC(=O)[C@H](CCCCNC(=O)[C@H](CCC(N)=O)NC(=O)[C@H](CCCCNC(=O)[C@@H](N)CC(C)C)NC(=O)[C@@H](N)CC(C)C)NC(=O)[C@H](CCC(N)=O)NC(=O)[C@H](CCCCNC(=O)[C@@H](N)CC(C)C)NC(=O)[C@@H](N)CC(C)C)C(=O)N[C@@H](CCCCN)C(N)=O (I: H-LK(Leu)QK([Gln-LeuLys(Leu)])FKK-NH2 / II: H-LK(Leu)QK([Gln-LeuLys(Leu)])F; amide I:6-II:C)
- MIC [1]: > 100 µg/mL
- MIC [2]: > 100 µg/mL
- MIC [3]: > 100 µg/mL
- MHC [4]: 250 µg/mL
- MIC [13]: > 32 µg/mL
- MIC [14]: > 32 µg/mL
- MIC [15]: > 32 µg/mL
- MIC [16]: > 32 µg/mL
- MIC [17]: > 32 µg/mL
- MIC [18]: > 32 µg/mL
- MIC [19]: > 32 µg/mL
- MIC [20]: > 32 µg/mL
- MIC [21]: > 32 µg/mL
- MIC [22]: > 32 µg/mL

Structure (SMILES): CC1(C)S[C@@H]2[C@H](NC(=O)[C@H](N)c3ccccc3)C(=O)N2[C@H]1C(=O)O [AMPICILLIN]
- MIC [5]: 0.13 µg/mL (≈ 0.372 µM)
- MIC [6]: > 32 µg/mL
- MIC [7]: 1 µg/mL (≈ 2.86 µM)
- MIC [8]: 1.5 µg/mL (≈ 4.29 µM)
- MIC [9]: 4 µg/mL (≈ 11.4 µM)
- MIC [10]: > 32 µg/mL
- MIC [11]: > 32 µg/mL
- MIC [12]: 1 µg/mL (≈ 2.86 µM)

Structure (SMILES): CC(C)C[C@H](N)C(=O)NC[C@H](NC(=O)[C@@H](N)CC(C)C)C(=O)N[C@@H](Cc1ccccc1)C(=O)NC[C@H](NC(=O)[C@H](Cc1ccccc1)NC(=O)[C@H](CNC(=O)[C@@H](N)CC(C)C)NC(=O)[C@@H](N)CC(C)C)C(=O)N1CCC[C@H]1C(=O)NC[C@H](NC(=O)[C@@H]1CCCN1C(=O)[C@H](CNC(=O)[C@H](Cc1ccccc1)NC(=O)[C@H](CNC(=O)[C@@H](N)CC(C)C)NC(=O)[C@@H](N)CC(C)C)NC(=O)[C@H](Cc1ccccc1)NC(=O)[C@H](CNC(=O)[C@@H](N)CC(C)C)NC(=O)[C@@H](N)CC(C)C)C(=O)N[C@@H](CCCCN)C(N)=O (I: H-L[Dap](Leu)F[Dap]([Phe-X1])P[Dap]K-NH2 / II: H-L[Dap](Leu)F[Dap]([Phe-X1])P; amide I:6-II:C)
- MIC [1]: 3.1 µg/mL (≈ 1.27 µM)
- MIC [2]: 15 µg/mL (≈ 6.16 µM)
- MIC [3]: 20 µg/mL (≈ 8.21 µM)
- MHC [4]: > 2000 µg/mL
- MIC [13]: > 32 µg/mL
- MIC [14]: > 32 µg/mL
- MIC [15]: > 32 µg/mL
- MIC [16]: > 32 µg/mL
- MIC [17]: > 32 µg/mL
- MIC [18]: > 32 µg/mL
- MIC [19]: > 32 µg/mL
- MIC [20]: > 32 µg/mL
- MIC [21]: > 32 µg/mL
- MIC [22]: > 32 µg/mL
